Reference: PMC10786037, “Autoinhibition in the Signal Transducer CIN85 Modulates B Cell Activation” (Journal of the American Chemical Society, 2023)
Where no end group is shown, it is not given here. [ ]: non-standard residue; d: D form. pS = N[C@@H](COP(=O)(O)O)C(=O)O

Legend:
CIN85 SH3C domain [1] = test: NMR titration (chemical shift perturbations) of 15N-labeled SH3C domain with synthetic CIN85-PRM1 peptides; format: binding, human; conditions: same peptide
Source text: (§1) The recognition of PRM by SH3 domains typically depends on the presence of positively charged residues, such as arginines at the motif’s N- or C-terminus, which often form cation−π interactions with conserved tryptophan residues in the SH3 binding interface.[30] […] We therefore used CIN85-PRM1 mutant peptide binding to the SH3C domain to determine the role of both arginines (R227 and R229) in this interaction. […] Because we knew that this interaction was in part driven by cation−π interactions, we anticipated a net energetic contribution on the order of −12 ± 6 kJ/mol if such an interaction would be disturbed by the mutation.[32] […] In the context of the whole protein, local concentration and/or cooperative effects could increase the actual strength of this interaction considerably. The residue S230 is adjacent to R229 and a known site for activation-induced phosphorylation in CIN85[33],[34] (see also Figure S4). To investigate the effect of S230s involvement in this interaction, we incorporated a phosphoserine (pS230), a S230D, and a S230A mutation into the synthetic peptide.
(§2) with 1000 resampled datasets with replacement. After obtaining the dissociation constant, the
(§3) Gibbs free energy of this interaction was calculated using the following relation: […]
(§4) Their difference in free energy can then be calculated as follows: […]
(§5) The value of ∆∆G here has the meaning of the stability contribution or net energetic contribution
(§6) of the residue that was mutated. […]

CIN85 SH3B domain [2] = biological target: T1, CIN85 SH3B domain (Homo sapiens, UniProt Q96B97); test: NMR titration (chemical shift perturbations) of 15N-labeled SH3B domain with synthetic CIN85-PRM1 peptide; format: binding; conditions: isolated SH3B domain, CSP of 15N-labeled domain, error of fitted KD from bootstrap resampling, read-out: KD (mM), binary SH3:peptide interaction
T1 construct: GST (with thrombin cleavage site) (N); made in house; host or cells: Escherichia coli BL21(DE3)
T1 sequence (Q96B97 98-157 limits assumed): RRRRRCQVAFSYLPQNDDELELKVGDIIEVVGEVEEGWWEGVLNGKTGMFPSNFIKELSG
Source text: (§7) We further used NMR titrations to assess the interaction of CIN85-PRM1 with isolated SH3 domains of CIN85, observing chemical shift perturbations (CSP) in the ^15N-labeled SH3 domains upon titration with a synthetic 14-residue peptide of the sequence ^219FKDKPIKLRPRSIE^232 (see Figure S2). […] We mapped the CSP onto the first model of the NMR structure of SH3C (PDB: 2k9g) in Figure 2A. Binding to the CIN85-PRM1 peptide occurs through the conserved binding site, involving the RT-loop (residues 278–292), the N-Src-loop (residues 300–307), and also the 3_10-helix (residues 320–322) of SH3C (see Figure 2B). […]
(§8) with 1000 resampled datasets with replacement. After obtaining the dissociation constant, the Gibbs free energy of this interaction was calculated using the following relation: […]
(§9) with R as the ideal gas constant (8.314 Jmol−1K−1) and T as the absolute temperature in K. This quantity is useful when comparing two similar interactions that differ in their KD, i.e. variants of the same peptide that have a single-point mutation or a post-translational modification (PTM) and […]
as §4
(§10) Determination of rotational correlation times and translational diffusion coefficients Residue-specific cross-correlated relaxation rates were determined at 800 MHz via the 2D TRACT experiment1, 12-13,using variable delays from 1-190 ms. […]

CIN85 SH3A domain [3] = biological target: T2, CIN85 SH3A domain (Homo sapiens, UniProt Q96B97); test: NMR titration (chemical shift perturbations) of 15N-labeled SH3A domain with synthetic CIN85-PRM1 peptide; format: binding; conditions: isolated SH3A domain, CSP of 15N-labeled domain, error of fitted KD from bootstrap resampling, read-out: KD (mM), binary SH3:peptide interaction
T2 construct: GST (with thrombin cleavage site) (N); made in house; host or cells: Escherichia coli BL21(DE3)
T2 sequence (Q96B97 1-58 limits assumed): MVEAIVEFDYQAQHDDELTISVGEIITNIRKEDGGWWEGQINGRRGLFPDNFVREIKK
Source text: as §7, §8, §9, §4, §10

CIN85 SH3C domain [4] = biological target: T3, CIN85 SH3C domain (Homo sapiens, UniProt Q96B97); test: NMR titration (chemical shift perturbations) of 15N-labeled SH3C domain with synthetic CIN85-PRM1 peptides; format: binding; conditions: for difference in binding energy compared to wild-type peptide (ΔΔG, net energetic contribution of the mutated residue): calculated from the KD's of mutant and wild-type peptide to SH3C; for fold increase of KD compared to wild-type peptide: mutant peptide binding to SH3C domain
T3 construct: His7 (with TEV protease cleavage site) (N, cleaved yes); made in house; host or cells: Escherichia coli BL21(DE3)
T3 sequence (Q96B97 267-328 limits assumed): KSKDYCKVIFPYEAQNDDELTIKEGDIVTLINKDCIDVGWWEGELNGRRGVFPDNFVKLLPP
Source text: as §1, §2, §3, §4, §5, §6

CIN85 SH3C domain [5] = biological target: T4, CIN85 SH3C domain (human, UniProt Q96B97-1 262-333); test: NMR titration; 15N-labelled isolated SH3 domain titrated with synthetic 14-residue peptide; chemical shift perturbations; KD fitted, error by bootstrap resampling; conditions: both partners purified
T4 construct: the NMR structure PDB 2k9g of SH3C was used to map the shifts; 15N-labelled for NMR; The limits of PDB 2k9g may differ from those of the construct; also called C-terminal SH3 domain
T4 sequence: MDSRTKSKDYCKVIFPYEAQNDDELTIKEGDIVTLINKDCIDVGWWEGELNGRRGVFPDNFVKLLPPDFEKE

CIN85 SH3A domain [6] = biological target: T5, CIN85 SH3A domain (human); test: as above; conditions: both partners purified
T5 chain: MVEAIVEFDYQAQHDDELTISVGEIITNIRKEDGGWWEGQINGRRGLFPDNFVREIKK

CIN85 SH3B domain [7] = biological target: T6, CIN85 SH3B domain (human); test: as above; conditions: both partners purified
T6 chain: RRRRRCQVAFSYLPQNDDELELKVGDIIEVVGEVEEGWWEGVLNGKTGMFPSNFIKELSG

## Ac-FKDKPIKLRPRSIE-NH2 [^219FKDKPIKLRPRSIE^232]
CIN85 SH3C domain [1]; SH3C versus SH3A
  fold lower dissociation constant (KD) of SH3C than SH3A: 3 fold
CIN85 SH3C domain [1]; SH3C versus SH3B
  fold lower dissociation constant (KD) of SH3C than SH3B: 5 fold
CIN85 SH3B domain [2]
  Kd: 1.09 ± 0.05 mM
CIN85 SH3A domain [3]
  Kd: 0.73 ± 0.02 mM

## Ac-FKDKPIKLAPASIE-NH2 [^219FKDKPIKLAPASIE^232]
CIN85 SH3C domain [4]; isolated SH3C domain, NMR titration, CSP of 15N-labeled domain, error of fitted KD from bootstrap resampling, read-out: KD (mM), binary SH3:peptide interaction
  Kd: > 2.45 mM

## Ac-FKDKPIKLRPASIE-NH2 [^219FKDKPIKLRPASIE^232]
CIN85 SH3C domain [4]
  difference in binding energy compared to wild-type peptide (ΔΔG, net energetic contribution of the mutated residue): 1.51 ± 0.239 kcal/mol
  fold increase of KD compared to wild-type peptide: 12 fold

## Ac-FKDKPIKLAPRSIE-NH2 [^219FKDKPIKLAPRSIE^232]
CIN85 SH3C domain [4]
  difference in binding energy compared to wild-type peptide (ΔΔG, net energetic contribution of the mutated residue): 0.784 ± 0.0478 kcal/mol
  fold increase of KD compared to wild-type peptide: 4 fold

B1: CIN85-PRM1 peptide pS230 (residues 219-232) (peptide)
peptide: FKDKPIKLRPR[pS]IE
notes: CIN85, human, residues 219-232 with phosphoserine at S230; also called pS230 peptide; source: synthetic peptide
CIN85 SH3C domain [5]
  Kd: 2350 µM

B2: CIN85-PRM1 peptide, wild type (residues 219-232) (peptide)
peptide: FKDKPIKLRPRSIE
notes: CIN85, human, residues 219-232 of the linker between SH3B and SH3C, holding the proline-rich motif CIN85-PRM1; also called wild-type CIN85-PRM1 peptide; source: synthetic peptide
CIN85 SH3C domain [5]
  Kd: 210 µM
CIN85 SH3A domain [6]
  Kd: 730 µM
CIN85 SH3B domain [7]
  Kd: 1090 µM

B3: CIN85-PRM1 peptide S230D (residues 219-232) (peptide)
peptide: FKDKPIKLRPRDIE
notes: CIN85, human, residues 219-232 with the phosphomimetic S230D; also called S230D peptide; source: synthetic peptide
CIN85 SH3C domain [5]
  Kd: 710 µM

B4: CIN85-PRM1 peptide R227A (residues 219-232) (peptide)
peptide: FKDKPIKLAPRSIE
notes: CIN85, human, residues 219-232 with R227A; also called R227A mutant peptide; source: synthetic peptide
CIN85 SH3C domain [5]
  Kd: 750 µM

B5: CIN85-PRM1 peptide R229A (residues 219-232) (peptide)
peptide: FKDKPIKLRPASIE
notes: CIN85, human, residues 219-232 with R229A; also called R229A mutant peptide; source: synthetic peptide
CIN85 SH3C domain [5]
  Kd: 2450 µM

B6: CIN85-PRM1 peptide S230A (residues 219-232) (peptide)
peptide: FKDKPIKLRPRAIE
notes: CIN85, human, residues 219-232 with S230A; also called S230A peptide; source: synthetic peptide
CIN85 SH3C domain [5]
  Kd: 200 µM

B7: CIN85-PRM1 peptide R227A/R229A (residues 219-232) (peptide)
peptide: FKDKPIKLAPASIE
notes: CIN85, human, residues 219-232 with R227A and R229A; also called R227A/R229A mutant peptide; source: synthetic peptide
CIN85 SH3C domain [5]
  Kd: > 2450 µM
